Data on one compound can be found in patent US8207211B2, “Photosensitizers for targeted photodynamic therapy” (The General Hospital Corporation, priority 2005, dated 2012).

SMILES strings stand for the structures.

One data set deals with P. aeruginosa. Description: Photodynamic inactivation (PDI), CFU survival, 405-nm light (Example 8). Format: cell-based, Pseudomonas aeruginosa. The text has this: Four microbial species were used in this study. Briefly, Escherichia coli was purchased from ATCC (ATCC #25922), Pseudomonas aeruginosa, two clinical isolates, were obtained; UCBP PA 14 from L. Rahme (Massachusetts General Hospital) and PA 767K from Kim Lewis (Tufts University), slime deficient mutant of Staphylococcus aureus was obtained from Gerald B Pier (Channing Laboratories). Yeast strain Candida albicans was purchased from ATCC (ATCC #18804). Exponential cultures obtained by reculturing stationary overnight cultures were used for all experiments. Bacteria were grown at 37° C. in BHI broth to a cell density of 10^8 cells per mL. C. albicans was grown 37° C. in YM medium to 10^7 cells/mL.
Six fullerene derivatives (NI1-3 and CI1-3) were evaluated. […] Concentration of fullerene derivatives used in the experiments varied between 1 and 100 μM.
Fullerene derivatives were mixed with microbial suspensions and incubated in the dark at room temperature for 10 minutes. Excess fullerenes were either washed out of, or left in, the suspensions before illumination. […]
During illumination, aliquots of 20 μL were taken to determine the colony-forming units. […] Colonies were counted and survival fraction was determined as percent of survival compared to control. […]

Data set [1] has as its system L929 murine fibroblast line. In words: Mammalian cell toxicity, MTT viability assay after illumination. Format: cell-based, mouse. The text has this:
Experiments to test the effect of functionalized fullerenes on mammalian cells can be performed in a suitable mammalian cell line. One such cell line is the L929 murine fibroblast line (ATCC #CCL1), a spontaneously transformed immortalized cell line established from the normal subcutaneous areolar and adipose tissue of a male C3H/An mouse (Earle, W. R., Schilling, E. L., Stark, T. H., Straus, N. P., Brown, M. F., and Shelton, E. (1943). Production of malignancy in vitro. IV. The mouse fibroblast cultures and changes seen in the living cells. J. Natl. Cancer Inst. 4, 165-212). In a suitable assay, these cells were cultured in Dulbecco's modified Eagle's medium (Sigma) at 37° C. in a humidified atmosphere containing 5% CO2. The medium is preferably modified by using 4 mM L-glutamine (containing 1.5 g/l sodium bicarbonate and 4.5 g/l glucose), 10% fetal bovine serum (FBS), 100 U/ml penicillin, and […] streptomycin. Cells were plated in 96-well cell culture plates, at a density of about 300 cells/well, and are allowed to attach for 24 hr.
Fullerenes and other PS, e.g., TBO, were added at a concentration of about 10 μM in 200 μl complete medium per well. After 10 min, fresh medium is added, and the cultures were illuminated with white light (for fullerenes) or with red light (for TBO). At the completion of the illumination period, cells were returned to the incubator for 24 hr. Cell viability can be determined, for example, by using the MTT-microculture tetrazolium assay, a method of assessing cellular response to PDT (Merlin, J. L., Azzi, S., Lignon, D., Ramacci, C., Zeghari, N., and Guillemin, F. (1992). MTT assays allow quick and reliable measurement of the response of human tumour cells to photodynamic therapy. Eur. J. Cancer 28A, 1452-1458. This assay involves the reduction of a colorless substrate, i.e., 3-[4,5-Dimethylthiazol-2-yl]-diphenyltetrazolium bromide (Sigma, St. Louis, […].) to an insoluble dark-blue formazan product which is formed in proportion to the amount of succinate dehydrogenase activity in the mitochondria of living cells. After incubation with MTT for periods ranging from 4 to 8 hr, the medium was aspirated from each well, and […] DMSO is added. The absorbance at 570 nm was read by a microplate reader, e.g., a Spectra Max™ 340 PC (Molecular Devices, Sunnyvale, Calif.). The fraction of cells surviving was calculated by dividing the mean absorbances of formazan produced from PDT-treated cells by the mean absorbances from dark controls incubated with PS and kept at room temperature for periods of time equal to the irradiation times.
(In general: Tetrazolium dyes change colour on reduction, which living cells bring about.)

The next data set deals with S. aureus. In words: Photodynamic inactivation (PDI), CFU survival, white light (red light for TBO). As to conditions: 1 μM. Format: cell-based, Staphylococcus aureus.

With `C[N+]1(C)Cc2c(c3c4ccc5c6ccc7c8ccc9c%10c%11c%12c(c2c2c3c3c4c5c4c6c7c5c8c9c%11c6c(c%122)c3c4c56)C2C[N+](C)(C)CC%102)C1` (stereo not drawn) [CI2], the “killing of P. aeruginosa” value in the data set with P. aeruginosa (10-20 μM, 16 J/cm^2 of 405-nm light) is on record as “high levels of killing”. For the same compound, the “effect of a wash on killing of P. aeruginosa” value in the data set with P. aeruginosa (illumination with versus without a wash, 405 nm) is “more killing after a wash”. The “toxicity to L929 mammalian cells at fluences used for PDI of pathogens” value in data set [1] (10 μM, 10 min, white light up to 50 J/cm^2) is given as “not killed”. The “toxicity to mammalian cells at high fluences relative to TBO” value in data set [1] (L929, high fluences) was “considerably less toxic”. The “PDT activity against S. aureus” value in the data set with S. aureus (10 min, white light up to 50 J/cm^2) is “effectively killed”. In addition, the “light sufficient to kill 4-5 logs of S. aureus” value in the data set on S. aureus (with a wash, white light) is listed as 2 J/cm^2.
